The target in test [1] is Histone acetyltransferase p300 (Homo sapiens) (UniProt Q09472). Description: Selectivity interaction (Bromodomain panel (DSF assay)) EUB0000191c EP300.
Test [2] concerns the target T1, Chromatin remodeling regulator CECR2 (Homo sapiens, UniProt Q9BXF3). Description: Selectivity interaction (ITC) EUB0000191c CECR2.
Target sequence in this assay (Q9BXF3 whole entry): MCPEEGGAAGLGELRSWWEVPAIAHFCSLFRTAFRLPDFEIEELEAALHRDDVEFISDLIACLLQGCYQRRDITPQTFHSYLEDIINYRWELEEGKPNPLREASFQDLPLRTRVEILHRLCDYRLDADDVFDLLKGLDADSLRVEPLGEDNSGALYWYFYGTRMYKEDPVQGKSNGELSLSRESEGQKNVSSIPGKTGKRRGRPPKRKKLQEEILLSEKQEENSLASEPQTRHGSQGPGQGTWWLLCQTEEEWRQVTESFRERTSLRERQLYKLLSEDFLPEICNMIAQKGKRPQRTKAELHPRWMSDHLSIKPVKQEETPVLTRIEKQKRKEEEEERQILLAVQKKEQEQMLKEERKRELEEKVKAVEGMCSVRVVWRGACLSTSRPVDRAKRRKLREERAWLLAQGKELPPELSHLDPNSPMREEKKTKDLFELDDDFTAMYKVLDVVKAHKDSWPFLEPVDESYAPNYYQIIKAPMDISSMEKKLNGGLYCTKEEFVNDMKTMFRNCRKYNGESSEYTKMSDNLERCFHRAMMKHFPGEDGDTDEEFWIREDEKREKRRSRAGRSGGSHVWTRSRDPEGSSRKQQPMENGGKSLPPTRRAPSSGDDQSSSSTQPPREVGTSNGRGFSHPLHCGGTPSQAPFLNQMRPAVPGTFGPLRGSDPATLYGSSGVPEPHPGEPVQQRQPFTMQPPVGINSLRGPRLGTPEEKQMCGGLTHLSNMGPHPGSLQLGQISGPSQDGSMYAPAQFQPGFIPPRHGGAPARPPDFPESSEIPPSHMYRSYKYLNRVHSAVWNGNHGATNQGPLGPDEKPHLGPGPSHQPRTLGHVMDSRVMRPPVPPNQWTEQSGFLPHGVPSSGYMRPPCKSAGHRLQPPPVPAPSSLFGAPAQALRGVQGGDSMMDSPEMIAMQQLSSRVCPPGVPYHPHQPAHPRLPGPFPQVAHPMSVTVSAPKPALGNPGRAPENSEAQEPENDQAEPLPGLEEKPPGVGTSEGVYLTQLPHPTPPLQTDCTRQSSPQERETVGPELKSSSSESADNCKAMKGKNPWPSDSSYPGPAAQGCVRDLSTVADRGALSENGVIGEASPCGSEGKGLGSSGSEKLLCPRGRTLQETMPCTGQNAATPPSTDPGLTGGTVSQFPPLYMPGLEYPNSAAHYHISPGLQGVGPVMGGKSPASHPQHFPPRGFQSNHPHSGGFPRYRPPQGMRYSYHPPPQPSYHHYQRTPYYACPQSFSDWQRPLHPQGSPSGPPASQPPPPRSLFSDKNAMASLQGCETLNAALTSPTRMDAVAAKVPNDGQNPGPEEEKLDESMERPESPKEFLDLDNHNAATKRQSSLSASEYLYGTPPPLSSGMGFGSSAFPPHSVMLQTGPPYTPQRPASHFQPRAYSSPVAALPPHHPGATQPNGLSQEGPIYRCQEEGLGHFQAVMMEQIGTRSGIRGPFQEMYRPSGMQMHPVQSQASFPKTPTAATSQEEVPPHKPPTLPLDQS
The target in test [3] is cGMP-dependent 3',5'-cyclic phosphodiesterase (Homo sapiens) (UniProt O00408). Nature of the test: Selectivity interaction (CEREP panel (LeadProfilingScreen Eurofins, panel of receptors, ion channels, and other enzymes)) EUB0000191c PDE2A. As to conditions: at 10 µM.
For the next test, the target named is CREB-binding protein (Homo sapiens, UniProt Q92793). Nature of the test: Selectivity interaction (BROMOscan (DiscoverX)) EUB0000191c CREBBP. The settings on record: at 100 nM.
Test [4] concerns the target T1, Chromatin remodeling regulator CECR2. Description: Selectivity interaction (Bromodomain panel (DSF assay)) EUB0000191c CECR2.
Target sequence in this assay (Q9BXF3 whole entry, looked up): as the sequence (Q9BXF3 whole entry) above
For test [5], the target named is T2, Gamma-aminobutyric acid receptor subunit alpha-1 (Homo sapiens) (UniProt P14867).
T2 sequence (whole entry): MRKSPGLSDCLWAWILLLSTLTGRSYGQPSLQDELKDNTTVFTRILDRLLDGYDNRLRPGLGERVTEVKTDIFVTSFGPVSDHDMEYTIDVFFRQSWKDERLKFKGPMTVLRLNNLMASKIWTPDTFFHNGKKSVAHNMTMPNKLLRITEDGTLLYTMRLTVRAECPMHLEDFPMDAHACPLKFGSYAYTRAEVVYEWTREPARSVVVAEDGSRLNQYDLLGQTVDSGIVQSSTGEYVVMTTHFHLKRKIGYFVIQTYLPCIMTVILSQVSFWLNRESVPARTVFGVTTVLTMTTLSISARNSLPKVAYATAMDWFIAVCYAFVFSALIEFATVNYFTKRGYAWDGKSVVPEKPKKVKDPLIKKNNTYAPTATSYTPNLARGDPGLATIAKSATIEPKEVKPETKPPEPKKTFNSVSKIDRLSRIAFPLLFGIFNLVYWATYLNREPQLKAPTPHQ
Nature of the test: Selectivity interaction (CEREP panel (LeadProfilingScreen Eurofins, panel of receptors, ion channels, and other enzymes)) EUB0000191c GABRA1. The settings on record: at 10 µM.

Test [6] has as its target T3, Bromodomain-containing protein 7 (Homo sapiens) (UniProt Q9NPI1).
T3 sequence (whole entry): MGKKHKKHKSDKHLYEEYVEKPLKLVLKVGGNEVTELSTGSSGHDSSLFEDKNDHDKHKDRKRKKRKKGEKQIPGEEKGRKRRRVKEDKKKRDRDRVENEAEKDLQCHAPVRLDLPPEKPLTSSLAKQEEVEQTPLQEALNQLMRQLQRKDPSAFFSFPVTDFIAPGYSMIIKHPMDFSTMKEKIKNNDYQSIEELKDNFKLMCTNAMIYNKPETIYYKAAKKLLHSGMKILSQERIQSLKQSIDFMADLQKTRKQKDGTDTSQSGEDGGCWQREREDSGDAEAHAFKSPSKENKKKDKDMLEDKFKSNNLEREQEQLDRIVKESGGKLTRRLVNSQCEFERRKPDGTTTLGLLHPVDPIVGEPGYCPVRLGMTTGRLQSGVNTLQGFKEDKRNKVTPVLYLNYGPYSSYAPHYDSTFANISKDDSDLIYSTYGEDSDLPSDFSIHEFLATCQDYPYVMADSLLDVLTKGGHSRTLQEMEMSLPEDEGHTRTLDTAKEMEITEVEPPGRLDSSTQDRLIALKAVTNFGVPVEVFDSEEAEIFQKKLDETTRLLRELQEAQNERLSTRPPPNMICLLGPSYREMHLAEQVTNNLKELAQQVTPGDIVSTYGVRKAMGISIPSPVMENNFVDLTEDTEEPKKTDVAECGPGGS
Nature of the test: Selectivity interaction (Bromodomain panel (DSF assay)) EUB0000191c BRD7.

Test [7] has as its target T4, Bromodomain-containing protein 4 (Homo sapiens, UniProt O60885). Nature of the test: (§1) Selectivity interaction (TR-FRET assay) EUB0000191c BRD4. For orientation: Time-resolved FRET reads energy transfer from a long-lived donor to a nearby acceptor.
Test [8] addresses T4, Bromodomain-containing protein 4. The description is as §1. The source holds these as a separate data set.
Test [9] has as its target Transcription initiation factor TFIID subunit 1-like (Homo sapiens) (UniProt Q8IZX4). Nature of the test: Selectivity interaction (BROMOscan (DiscoverX)) EUB0000191c TAF1L. The settings on record: at 100 nM.
For test [10], the target named is cGMP-specific 3',5'-cyclic phosphodiesterase (Homo sapiens) (UniProt O76074). Nature of the test: Selectivity interaction (CEREP panel (LeadProfilingScreen Eurofins, panel of receptors, ion channels, and other enzymes)) EUB0000191c PDE5A. The settings on record: at 10 µM.
Test [11] has as its target T5, Adenosine receptor A1 (Homo sapiens) (UniProt P30542).
T5 sequence (whole entry): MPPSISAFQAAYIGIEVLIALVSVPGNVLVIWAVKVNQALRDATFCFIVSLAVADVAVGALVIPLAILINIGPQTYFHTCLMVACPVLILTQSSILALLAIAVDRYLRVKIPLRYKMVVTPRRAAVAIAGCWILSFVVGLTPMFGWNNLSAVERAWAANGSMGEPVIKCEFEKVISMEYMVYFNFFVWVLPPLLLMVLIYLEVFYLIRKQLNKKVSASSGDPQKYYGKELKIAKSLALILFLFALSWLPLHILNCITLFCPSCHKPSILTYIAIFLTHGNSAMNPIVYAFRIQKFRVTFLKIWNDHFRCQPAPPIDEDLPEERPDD
Description: Selectivity interaction (CEREP panel (LeadProfilingScreen Eurofins, panel of receptors, ion channels, and other enzymes)) EUB0000191c ADORA1. As to conditions: at 10 µM.

Test [12] has as its target cAMP-dependent protein kinase catalytic subunit beta (Homo sapiens) (UniProt P22694). Nature of the test: Selectivity interaction (KinomeScan (DiscoverX)) EUB0000716a PRKACB. The settings on record: at 100 nM.
Test [13] concerns the target T6, Sodium-dependent dopamine transporter (Homo sapiens, UniProt Q01959). Description: (§2) Selectivity interaction (Eurofins-Panlabs radioligand binding assay) EUB0000716a SLC6A3.
Test [14] has as its target cGMP-dependent protein kinase 1 (Homo sapiens) (UniProt Q13976). Nature of the test: Selectivity interaction (KinomeScan (DiscoverX)) EUB0000716a PRKG1. As to conditions: at 100 nM.
The target in test [15] is T7, Serine/threonine-protein kinase LATS2 (Homo sapiens) (UniProt Q9NRM7).
T7 sequence (whole entry): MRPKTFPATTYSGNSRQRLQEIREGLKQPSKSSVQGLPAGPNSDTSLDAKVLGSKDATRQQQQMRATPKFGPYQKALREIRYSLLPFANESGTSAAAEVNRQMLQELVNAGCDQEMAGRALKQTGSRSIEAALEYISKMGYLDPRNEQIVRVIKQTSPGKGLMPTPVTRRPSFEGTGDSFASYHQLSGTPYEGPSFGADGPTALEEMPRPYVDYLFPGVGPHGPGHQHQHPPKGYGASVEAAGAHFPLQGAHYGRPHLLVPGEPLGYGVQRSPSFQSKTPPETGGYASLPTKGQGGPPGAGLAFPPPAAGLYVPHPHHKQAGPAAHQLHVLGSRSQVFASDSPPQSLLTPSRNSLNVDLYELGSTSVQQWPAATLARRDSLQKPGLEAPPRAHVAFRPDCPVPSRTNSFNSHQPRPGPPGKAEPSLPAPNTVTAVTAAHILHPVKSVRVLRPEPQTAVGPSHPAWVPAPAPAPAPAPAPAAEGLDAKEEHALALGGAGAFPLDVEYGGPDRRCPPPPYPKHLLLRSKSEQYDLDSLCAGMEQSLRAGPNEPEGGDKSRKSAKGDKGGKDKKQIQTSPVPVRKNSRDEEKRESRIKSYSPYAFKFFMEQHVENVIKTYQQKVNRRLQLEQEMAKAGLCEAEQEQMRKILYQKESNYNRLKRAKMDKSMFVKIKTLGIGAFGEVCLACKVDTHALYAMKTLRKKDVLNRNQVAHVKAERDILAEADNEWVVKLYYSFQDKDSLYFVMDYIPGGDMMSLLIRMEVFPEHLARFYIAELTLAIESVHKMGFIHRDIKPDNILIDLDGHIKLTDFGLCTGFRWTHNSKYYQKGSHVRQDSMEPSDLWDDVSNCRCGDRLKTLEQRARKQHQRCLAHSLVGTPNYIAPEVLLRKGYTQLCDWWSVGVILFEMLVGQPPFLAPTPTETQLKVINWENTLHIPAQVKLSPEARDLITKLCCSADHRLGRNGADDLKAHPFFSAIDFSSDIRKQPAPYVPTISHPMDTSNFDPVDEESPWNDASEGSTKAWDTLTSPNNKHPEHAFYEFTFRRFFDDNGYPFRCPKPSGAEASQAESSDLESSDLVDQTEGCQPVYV
Nature of the test: Selectivity interaction (KinomeScan (DiscoverX)) EUB0000716a LATS2. As to conditions: at 100 nM.

Test [16] concerns the target T8, Serine/threonine-protein kinase LATS1 (Homo sapiens) (UniProt O95835).
T8 sequence (whole entry): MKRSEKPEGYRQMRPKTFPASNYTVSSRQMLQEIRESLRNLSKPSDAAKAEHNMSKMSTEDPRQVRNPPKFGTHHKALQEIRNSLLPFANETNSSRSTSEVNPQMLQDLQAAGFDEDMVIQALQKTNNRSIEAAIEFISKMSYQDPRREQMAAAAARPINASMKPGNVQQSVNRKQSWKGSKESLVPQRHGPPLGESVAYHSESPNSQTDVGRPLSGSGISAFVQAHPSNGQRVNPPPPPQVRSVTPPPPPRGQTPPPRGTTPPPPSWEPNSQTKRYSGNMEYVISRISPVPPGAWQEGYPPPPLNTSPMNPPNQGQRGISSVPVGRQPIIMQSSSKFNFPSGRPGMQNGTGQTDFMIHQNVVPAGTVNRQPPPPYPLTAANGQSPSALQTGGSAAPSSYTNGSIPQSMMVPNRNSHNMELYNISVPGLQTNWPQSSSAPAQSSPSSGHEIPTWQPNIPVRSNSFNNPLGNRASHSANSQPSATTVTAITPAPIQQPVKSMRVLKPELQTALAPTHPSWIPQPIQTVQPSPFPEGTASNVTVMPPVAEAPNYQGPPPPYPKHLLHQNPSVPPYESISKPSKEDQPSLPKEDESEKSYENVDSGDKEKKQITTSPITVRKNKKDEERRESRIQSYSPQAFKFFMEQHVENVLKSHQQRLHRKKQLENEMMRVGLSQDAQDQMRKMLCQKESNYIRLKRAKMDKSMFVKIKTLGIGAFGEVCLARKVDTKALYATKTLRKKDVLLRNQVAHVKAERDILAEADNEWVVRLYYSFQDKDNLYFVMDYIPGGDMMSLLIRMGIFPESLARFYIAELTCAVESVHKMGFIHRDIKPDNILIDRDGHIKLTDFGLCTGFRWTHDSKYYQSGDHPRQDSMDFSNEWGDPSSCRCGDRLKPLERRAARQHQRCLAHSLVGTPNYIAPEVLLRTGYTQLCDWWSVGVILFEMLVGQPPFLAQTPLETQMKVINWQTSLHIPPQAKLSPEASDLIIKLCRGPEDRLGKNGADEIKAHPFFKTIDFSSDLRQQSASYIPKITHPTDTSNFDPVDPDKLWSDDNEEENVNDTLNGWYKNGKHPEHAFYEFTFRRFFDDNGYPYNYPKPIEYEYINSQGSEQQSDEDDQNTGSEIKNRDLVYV
Nature of the test: Selectivity interaction (KinomeScan (DiscoverX)) EUB0000716a LATS1. As to conditions: at 100 nM.

Test [17] has as its target T6, Sodium-dependent dopamine transporter. Described as §2. The source holds these as a separate data set.
Test [18] has as its target cAMP-dependent protein kinase catalytic subunit alpha (Homo sapiens, UniProt P17612). Description: Selectivity interaction (KinomeScan (DiscoverX)) EUB0000716a PRKACA. The settings on record: at 100 nM.

Where only a bound is given, the exact number is not on record here.

T6 sequence (Q01959 whole entry): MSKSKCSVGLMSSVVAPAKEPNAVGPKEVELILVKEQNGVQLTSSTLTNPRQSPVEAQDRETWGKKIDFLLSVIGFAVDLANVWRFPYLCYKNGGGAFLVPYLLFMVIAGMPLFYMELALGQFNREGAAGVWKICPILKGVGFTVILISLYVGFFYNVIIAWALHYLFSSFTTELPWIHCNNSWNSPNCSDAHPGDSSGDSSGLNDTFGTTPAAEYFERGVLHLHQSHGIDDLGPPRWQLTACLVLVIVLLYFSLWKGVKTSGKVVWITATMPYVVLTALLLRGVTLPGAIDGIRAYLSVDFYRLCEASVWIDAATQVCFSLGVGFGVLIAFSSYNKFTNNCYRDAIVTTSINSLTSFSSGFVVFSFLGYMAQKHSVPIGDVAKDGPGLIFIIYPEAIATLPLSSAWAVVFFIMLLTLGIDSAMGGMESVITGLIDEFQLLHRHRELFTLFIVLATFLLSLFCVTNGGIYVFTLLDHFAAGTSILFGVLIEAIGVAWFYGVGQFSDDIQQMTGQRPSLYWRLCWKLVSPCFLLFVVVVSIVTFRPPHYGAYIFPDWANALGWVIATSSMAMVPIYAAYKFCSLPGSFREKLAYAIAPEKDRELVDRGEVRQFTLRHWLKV
Sequence of cGMP-dependent protein kinase 1 (Homo sapiens) (Q13976 whole entry): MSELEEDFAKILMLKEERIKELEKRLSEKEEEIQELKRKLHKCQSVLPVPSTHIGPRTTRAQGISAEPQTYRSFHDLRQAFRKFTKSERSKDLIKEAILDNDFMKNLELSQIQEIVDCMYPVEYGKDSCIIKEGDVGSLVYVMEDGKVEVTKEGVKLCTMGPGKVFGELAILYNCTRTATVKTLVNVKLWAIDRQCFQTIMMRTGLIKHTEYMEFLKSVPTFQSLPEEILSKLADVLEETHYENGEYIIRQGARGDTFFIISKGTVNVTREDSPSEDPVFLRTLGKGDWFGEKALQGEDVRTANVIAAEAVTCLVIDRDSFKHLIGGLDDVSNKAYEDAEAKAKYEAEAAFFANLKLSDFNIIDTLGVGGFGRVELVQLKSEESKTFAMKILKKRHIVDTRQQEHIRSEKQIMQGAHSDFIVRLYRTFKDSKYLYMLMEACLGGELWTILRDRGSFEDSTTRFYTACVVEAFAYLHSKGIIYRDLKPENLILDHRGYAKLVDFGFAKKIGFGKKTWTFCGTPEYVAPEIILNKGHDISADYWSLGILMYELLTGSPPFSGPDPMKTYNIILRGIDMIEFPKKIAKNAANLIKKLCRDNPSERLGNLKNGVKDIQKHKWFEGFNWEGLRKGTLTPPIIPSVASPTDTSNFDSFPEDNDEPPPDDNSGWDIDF
Sequence of Transcription initiation factor TFIID subunit 1-like (Homo sapiens) (Q8IZX4 whole entry): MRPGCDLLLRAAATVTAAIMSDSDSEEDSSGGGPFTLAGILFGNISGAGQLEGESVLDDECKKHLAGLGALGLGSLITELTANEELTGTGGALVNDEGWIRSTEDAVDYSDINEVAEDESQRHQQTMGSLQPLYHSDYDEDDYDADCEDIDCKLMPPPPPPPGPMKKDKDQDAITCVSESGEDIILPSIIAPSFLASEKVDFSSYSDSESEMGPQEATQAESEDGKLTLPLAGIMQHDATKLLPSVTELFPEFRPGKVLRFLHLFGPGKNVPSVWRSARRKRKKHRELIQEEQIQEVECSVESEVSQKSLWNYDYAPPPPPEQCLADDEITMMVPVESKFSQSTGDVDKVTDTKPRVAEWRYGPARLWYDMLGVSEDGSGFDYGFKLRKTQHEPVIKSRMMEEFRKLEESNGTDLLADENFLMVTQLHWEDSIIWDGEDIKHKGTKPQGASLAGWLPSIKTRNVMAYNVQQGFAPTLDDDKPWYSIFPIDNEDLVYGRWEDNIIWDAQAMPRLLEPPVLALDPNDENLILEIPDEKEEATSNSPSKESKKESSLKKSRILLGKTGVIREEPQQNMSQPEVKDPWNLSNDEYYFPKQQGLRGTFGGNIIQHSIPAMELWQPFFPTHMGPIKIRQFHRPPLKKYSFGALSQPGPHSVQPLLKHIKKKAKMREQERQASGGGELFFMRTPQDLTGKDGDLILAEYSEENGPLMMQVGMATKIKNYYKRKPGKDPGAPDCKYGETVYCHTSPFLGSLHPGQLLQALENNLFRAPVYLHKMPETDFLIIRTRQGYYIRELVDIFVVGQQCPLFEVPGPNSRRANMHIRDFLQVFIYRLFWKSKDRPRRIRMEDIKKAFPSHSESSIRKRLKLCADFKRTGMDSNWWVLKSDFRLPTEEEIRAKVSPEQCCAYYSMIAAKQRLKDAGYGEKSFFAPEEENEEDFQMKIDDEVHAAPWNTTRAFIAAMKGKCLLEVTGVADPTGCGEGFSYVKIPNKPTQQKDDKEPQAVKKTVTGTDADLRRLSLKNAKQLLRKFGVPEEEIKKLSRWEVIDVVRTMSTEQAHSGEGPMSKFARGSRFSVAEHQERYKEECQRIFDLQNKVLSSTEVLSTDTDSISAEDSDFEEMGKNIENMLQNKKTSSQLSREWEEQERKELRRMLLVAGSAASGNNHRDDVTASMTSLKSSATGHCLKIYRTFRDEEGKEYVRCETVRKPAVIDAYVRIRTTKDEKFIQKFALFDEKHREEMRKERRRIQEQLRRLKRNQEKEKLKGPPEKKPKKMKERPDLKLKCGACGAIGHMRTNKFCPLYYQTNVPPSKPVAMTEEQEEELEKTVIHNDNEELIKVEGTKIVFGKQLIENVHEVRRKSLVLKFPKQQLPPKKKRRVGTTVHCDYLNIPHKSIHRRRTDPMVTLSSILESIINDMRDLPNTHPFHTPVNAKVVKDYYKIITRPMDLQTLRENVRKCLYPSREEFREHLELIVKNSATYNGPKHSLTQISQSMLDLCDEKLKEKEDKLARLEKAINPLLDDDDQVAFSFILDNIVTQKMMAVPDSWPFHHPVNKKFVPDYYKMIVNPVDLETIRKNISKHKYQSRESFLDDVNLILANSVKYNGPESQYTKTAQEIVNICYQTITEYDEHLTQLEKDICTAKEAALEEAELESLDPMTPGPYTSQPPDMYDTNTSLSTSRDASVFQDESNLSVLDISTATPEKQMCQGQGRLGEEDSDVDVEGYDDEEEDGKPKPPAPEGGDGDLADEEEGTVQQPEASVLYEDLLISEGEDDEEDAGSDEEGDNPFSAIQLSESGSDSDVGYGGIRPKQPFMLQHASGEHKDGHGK

Usually Kd stands for the concentration at which binding is half-saturated. Read a low Kd as higher affinity. A word on the IC50: it is the concentration that inhibits the measured activity by half. For `Cc1cc2c(cc1N1C(=O)c3cccc4c(CCCO)ccc(c34)C1=O)n(C)c(=O)n2C`, the dTm in test [1] was 3.5 K; in test [4], 3.5 K; in [6], 2.3 K. The compound also showed a Kd in [2] of 1390 nM. The % of control in [3] was 49%; on CREB-binding protein it was 30%; in test [5], 23%; in test [9], 0.7%; in [10], 2%; in test [11], 48%. Further, the IC50 in test [7] is above 15000 nM; in [8] it was above 20000 nM.
Broadly, the Ki is the equilibrium dissociation constant of an inhibitor or competing ligand from its target. Lower therefore signals a stronger hold on the target. Consider `Cc1c[nH]c2nccc(Oc3c(F)cc(Nc4cc(Cl)nc(N)n4)cc3F)c12` [BAY-549], for which the % of control stood at 36% in [12]; 49% in test [14]; 0.7% in test [15]; 42% in [16]; 28% in test [18]. Besides, the Ki in [13] came to 39 nM; in test [17], 27 nM.

These data come from ChEMBL document CHEMBL5212743, “Selectivity Literature for EUbOPEN Chemogenomics Library wave 3” (2023).
